Test results: ChEMBL document CHEMBL4257490, “Development of a peptide-based bifunctional chelator conjugated to a cytotoxic drug for the treatment of melanotic melanoma” (Medchemcomm, 2018)
Active and inactive are the calls of the source. The rule behind the calls is not given here. Residues, ends and D or L forms follow the SMILES beside them. *: point of attachment. X1 = O=c1nc(N*)ccn1[C@@H]1O[C@H](CO)[C@@H](O)C1(F)F

Key:
[1] = Drug uptake in lung of Balb/c mouse allografted with mouse B16F10 cells using 99mTc(CO)3-labeled compound at 10 to 12 MBq/kg, iv measured at 2 hrs; type: ADME, organism-based; settings: in vivo
[2] = Ratio of drug level in tumor to blood of Balb/c mouse allografted with mouse B16F10 cells using 99mTc(CO)3-labeled compound at 10 to 12 MBq/kg, iv measured at 2 hrs; type: ADME, organism-based, Tumor/tissue
[3] = Drug uptake in liver of Balb/c mouse allografted with mouse B16F10 cells using 99mTc(CO)3-labeled compound at 4 to 8 MBq, iv measured at 4 hrs by scintigraphic imaging method; type: ADME, organism-based; settings: in vivo
[4] = Drug degradation in histidine solution using 99mTc(CO)3-labeled compound after 24 hrs by TLC method; type: physicochemical; settings: read-out: Drug degradation
[5] = Drug uptake in lung of Balb/c mouse allografted with mouse B16F10 cells using 99mTc(CO)3-labeled compound at 10 to 12 MBq/kg, iv measured at 4 hrs; type: ADME, organism-based; settings: in vivo
[6] = Drug uptake in liver of Balb/c mouse allografted with mouse B16F10 cells using 99mTc(CO)3-labeled compound at 10 to 12 MBq/kg, iv measured at 4 hrs; type: ADME, organism-based; settings: in vivo
[7] = Metabolic stability in rat serum assessed as parent compound remaining using 99mTc(CO)3-labeled compound after 24 hrs by TLC method; type: ADME, cell-free; settings: read-out: Stability
[8] = Drug uptake in mouse B16F10 cells using 99mTc(CO)3-labeled compound at 15 to 20 MBq/ml after 240 mins by gamma scintillation counting method relative to total added activity; type: ADME, cell-based; settings: b16-f10, 4 h
[9] = Drug uptake in tumor of Balb/c mouse allografted with mouse B16F10 cells using 99mTc(CO)3-labeled compound at 4 to 8 MBq, iv measured at 4 hrs by scintigraphic imaging method; type: ADME, organism-based, Neoplasm; settings: in vivo
[10] = Drug uptake in heart of Balb/c mouse allografted with mouse B16F10 cells using 99mTc(CO)3-labeled compound at 10 to 12 MBq/kg, iv measured at 4 hrs; type: ADME, organism-based; settings: in vivo
B16-F10 [11] = test: Induction of apoptosis in mouse B16F10 cells at IC50 after 72 hrs by annexin V-FITC/propidium iodide staining-based flow cytometric method relative to control; type: functional
[12] = Ratio of drug level in tumor to muscle of Balb/c mouse allografted with mouse B16F10 cells using 99mTc(CO)3-labeled compound at 10 to 12 MBq/kg, iv measured at 2 hrs; type: ADME, organism-based, Tumor/tissue; settings: in vivo
[13] = Drug uptake in spleen of Balb/c mouse allografted with mouse B16F10 cells using 99mTc(CO)3-labeled compound at 10 to 12 MBq/kg, iv measured at 2 hrs; type: ADME, organism-based; settings: in vivo
B16-F10 [14] = test: Antitumor activity against mouse B16F10 cells allografted in Balb/c mouse assessed as decrease in tumor development at 25 mg/kg, iv administered thrice weekly for 21 days starting on day 10 post tumor implantation by haematoxylin and eosin staining-based method; type: functional, organism-based
[15] = Drug uptake in kidney of Balb/c mouse allografted with mouse B16F10 cells using 99mTc(CO)3-labeled compound at 10 to 12 MBq/kg, iv measured at 2 hrs; type: ADME, organism-based; settings: in vivo
[16] = Ratio of drug level in tumor to muscle of Balb/c mouse allografted with mouse B16F10 cells using 99mTc(CO)3-labeled compound at 10 to 12 MBq/kg, iv measured at 4 hrs; type: ADME, organism-based, Tumor/tissue; settings: in vivo

## NCCCC[C@H](NC(=O)CNC(=O)[C@H](Cc1cnc[nH]1)NC(=O)[C@H](CCCCN)NC(=O)[C@H](Cc1ccc(O)cc1)NC(=O)[C@@H](N)Cc1cnc[nH]1)C(=O)N[C@@H](CC(=O)Nc1ccn([C@@H]2O[C@H](CO)[C@@H](O)C2(F)F)c(=O)n1)C(N)=O (H-HYKHGKD(X1)-NH2)
[1]
  Drug uptake: 0.4 % ID/g
[2]
  Kp at 2 h: 0.95
[3]
  Drug uptake: Active
[4]
  degraded at 24 h: 5%
[5]
  Drug uptake: 0.25 % ID/g
[6]
  Drug uptake: 15.62 % ID/g
[7]
  remaining at 24 h: ≥ 92%
[8]
  Drug uptake: 9.87%
[9]
  Drug uptake: Active
[10]
  Drug uptake: 0.04 % ID/g
B16-F10 [11]
  Activity: 61%
[12]
  Ratio: 10.64
[13]
  Drug uptake: 0.69 % ID/g
B16-F10 [14]
  Activity: Active
[15]
  Drug uptake: 18.96 % ID/g
[16]
  Ratio: 18.73
